Assay [1] deals with human embryonic stem cell line H7. The assay can be described thus: FACS analysis of protein expression following activin A treatment, H7. The assay is classed as cell-based. Particulars: AA 100 ng/ml. The text has this: The level of expression of definitive endoderm markers was examined by PCR (FIG. 1), FACS (results summarized in Table II), and immunohistochemistry (FIG. 2).
CXCR4 positive cells were also highly positive for C-kit, EPCAM, CD99, and negative for CD9. The expression pattern for these markers was consistent among all three hES cell lines examined (Table IIB for H7 and Table IIC for H1). […] In parallel, almost 100% of the differentiated cells were […] (FIG. 2).
Adhered cells were removed from culture plates by five-minute incubation with TrypLE™ Express solution (Invitrogen, CA). Released cells were resuspended in human embryonic stem cell culture medium and recovered by centrifugation, followed by washing and resuspending the cells in a staining buffer consisting of 2% BSA, 0.05% sodium azide in PBS (Sigma, MO). As appropriate, the cells were Fc-receptor blocked for 15 minutes using a 0.1% γ-globulin (Sigma) solution. […] Controls included appropriate isotype matched antibodies, unstained cells, and cells stained only with secondary conjugated antibody. All incubations with antibodies were performed for 30 mins at 4° C. after which the cells were washed with the staining buffer. Samples that were stained with unconjugated primary antibodies were incubated for an additional 30 mins at 4° C. with secondary conjugated PE or -APC labeled antibodies. See Table I for a list of secondary antibodies used. Washed cells were pelleted and resuspended in the staining buffer, and the cell surface molecules were identified using a FACS Array (BD Biosciences) instrument, collecting at least 10,000 events.

The next assay concerns SA002 ES line. The assay can be described thus: Real-time PCR and FACS of DE markers, SA002 on […]. The assay is classed as cell-based, human. Particulars: SA002 P38; 20 ng/ml Wnt-3a with 100 ng/ml activin A. The text has this: Expression of CXCR4 is depicted in FIG. 45: a) AA treatment b) AA+Wnt-3a c) AA+GSK-3B inhibitor.

“Activin A: a member of the TGFβ superfamily; R&D Systems; Group 2 = Activin A (100 ng/ml)”: in assay [1] (1-day), the “CXCR4+” value came out at 6%, the “CXCR4+ C-Kit+” value was determined as 2.97%, the “CXCR4+ CD9+” value came out at 8.13% and the “CXCR4+ EPCAM+” value worked out at 14.58%. Moreover, in assay [1] (3-day), the “CXCR4+” value came out at 38%, the “CXCR4+ C-Kit+” value is given as 31.56%, the “CXCR4+ CD9+” value is 24.11% and the “CXCR4+ EPCAM+” value amounted to 36.67%. In addition, in assay [1] (5-day), the “CXCR4+” value stood at 65.5%, the “CXCR4+ C-Kit+” value is on record as 55.21%, the “CXCR4+ CD9+” value came to 2.1% and the “CXCR4+ EPCAM+” value was found to be 54.5%.

Regarding Wnt-3a, the “expression of DE markers” value in the assay on SA002 ES line is “robust expression”.
